# In BindingDB's records for doi:10.7270/Q2PR7TCX (The Scripps Research Institute Molecular Screening Center, 2007):
# Molecular target: Steroidogenic factor 1 (Homo sapiens, UniProt Q13285)
# Assay: inhibition of SF-1 LBD-driven luciferase – cell-based, CHO-K1, Gal4-SF-1 LBD, luciferase luminescence, counter-screen for RORA inhibitor project, dose response (AID 611)
# Sequence of Steroidogenic factor 1 (Q13285 whole entry, the tested form may be a part): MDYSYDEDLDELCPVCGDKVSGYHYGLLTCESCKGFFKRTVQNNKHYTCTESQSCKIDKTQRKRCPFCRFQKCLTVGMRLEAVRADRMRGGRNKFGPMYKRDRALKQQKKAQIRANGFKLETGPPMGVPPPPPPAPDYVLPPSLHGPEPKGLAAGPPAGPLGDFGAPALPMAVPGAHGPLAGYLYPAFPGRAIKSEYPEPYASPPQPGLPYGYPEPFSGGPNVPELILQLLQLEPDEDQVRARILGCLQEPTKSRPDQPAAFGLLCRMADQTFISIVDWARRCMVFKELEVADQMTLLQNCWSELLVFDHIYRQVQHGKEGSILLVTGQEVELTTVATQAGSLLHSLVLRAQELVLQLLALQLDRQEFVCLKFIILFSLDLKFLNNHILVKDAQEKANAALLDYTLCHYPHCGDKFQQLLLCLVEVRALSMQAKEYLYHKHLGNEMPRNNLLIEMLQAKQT
row,IC50,SMILES
1,5.97 µM,"Cc1ccc(-c2csc(N3CCC(NS(=O)(=O)c4ccc5c(c4)OCCO5)CC3)n2)cc1 [N-[1-[4-(4-methylphenyl)-1,3-thiazol-2-yl]piperidin-4-yl]-2,3-dihydro-1,4-benzodioxine-6-sulfonamide]"
2,21.9 µM,c1ccc(CNc2ncnc3ccccc23)cc1 [N-benzylquinazolin-4-amine]
3,7.19 µM,c1ccc2nc(-c3nc4ccccc4[nH]3)ccc2c1 [SMR000008748]
4,5.99 µM,O=S1(=O)C=C(Sc2nc3cc(Cl)ccc3o2)c2ccccc21 [SMR000019512]
5,1.64 µM,CCCCS(=O)(=O)/C=C\C=C/S(=O)(=O)CCCC [SMR000020833]
6,4.92 µM,CC(=O)c1c(C)[nH]c(C(=O)Nc2ccc(C)cn2)c1C [SMR000026816]
7,2.99 µM,c1ccc2c(c1)CCN(c1ncnc3c1[nH]c1ccccc13)C2 [SMR000039631]
8,4.13 µM,c1ccc(-c2nc(N3CCCCCC3)c3ccccc3n2)nc1 [SMR000046752]
9,8.16 µM,COCCn1c(C)cc(C(=O)COC(=O)c2[nH]nc3ccccc23)c1C [SMR000068187]
10,5.2 µM,COc1cc(NS(=O)(=O)c2ccc(C)cc2)c2ncccc2c1 [SMR000071147]
11,4.32 µM,"COC(=O)/C(=C1/Oc2cc(C)oc(=O)c2S1)C(F)(F)F [methyl (2E)-3,3,3-tris(fluoranyl)-2-(6-methyl-4-oxidanylidene-[1,3]oxathiolo[4,5-c]pyran-2-ylidene)propanoate]"
12,1.87 µM,"CCCCCOC(=O)c1[nH]c2c(c1C)C(=O)CC(c1ccco1)C2 (configuration not stated) [pentyl 6-(furan-2-yl)-3-methyl-4-oxidanylidene-1,5,6,7-tetrahydroindole-2-carboxylate]"
